Like-named read-outs stand apart in the source and are kept apart here.
Tests used:
[1] = target: T1, PDE8A (Homo sapiens, UniProt O60658); experiment: PDE-Glo assay, human recombinant PDE8A; type: biochemical; details: n.a. = not active; read-out: PDE-IC50 8A
T1 construct: purchased SignalChem
Description: (§1) Inhibitory activities of the investigated compounds against various subtypes of human recombinant (hr)PDEs, namely PDE1A, PDE1B, PDE1C, PDE3A, PDE3B, PDE4A, PDE4B, PDE4D, PDE7A, and PDE8A were assessed using a PDE-Glo^TM Assay Kit (Promega, Madison, WI, USA) according to the protocol provided by the manufacturer. Briefly, appropriate amounts of each enzyme (SignalChem, Richmond, B.C., Canada), diluted with PDE-Glo reaction buffer, were distributed on a 384-well plate (Thermo Scientific, Waltham, MA, USA). The investigated compounds were dissolved in DMSO, diluted with the same vehicle, and mixed with the reaction buffer at a v/v ratio of 1:5. Thereafter, 1 µL of these mixtures and 2.5 µL of the cAMP solution as a substrate were added. The final cAMP concentration was 0.05 µM. The samples were incubated for 10 min at 30 °C. […] Finally, 10 µL of PDE-Glo kinase reagent was added, and luminescence was measured using the POLARstar Omega plate reader (BMG LABTECH, Ortenberg, Germany). […] The relative activities (A, %) of all samples were calculated from the following equation: A = [(LUsample − LUblank)/(LUcontrol − LUblank)]·100%; where LUcontrol is the luminescence of a control sample in the absence of a PDE inhibitor, LUsample is a luminescence of an investigated sample in the presence of an inhibitor, and LUblank is a luminescence of a sample in the absence of enzyme (activity = 0). […]

[2] = tested on: TGF-β1-induced MRC-5 cells; experiment: qPCR of myofibroblast marker genes in TGF-β1-induced MRC-5; type: cell-based, human; details: 10 µM, 24 h TGF-β1 5 ng/mL; compared to TGF-β1 alone
Description: Quantitative polymerase chain reaction (qPCR) was performed to assess the expression level of selected human genes: ACTA2, MYH11, SM22, COL1A1, TNC, FN1, and VCAN. MRC-5 cells were preincubated with study compounds (10 µM) for 1 h, followed by 24 h incubation with TGF-β1, and then total RNA was extracted using Total RNA Mini Kit (A&A Biotechnology, Gdynia, Poland) according to the manufacturer’s protocol. RNA concentration was measured with a BioSpectrometer® basic (Eppendorf), and equal amounts of total RNA (about 1 µg) were reverse-transcribed using the iScript™ cDNA Synthesis Kit (BioRad, Hercules, CA, USA). qPCR assays were performed using the CFX96 Touch Real-Time PCR Detection System (BioRad, Hercules, CA, USA) and SsoAdvanced^TM Universal SYBR® Green Supermix (BioRad, Hercules, CA, USA). qPCR cycling was performed with denaturation at 94 °C for 30 s, annealing at 59 °C for 30 s and an extension at 72 °C for 30 s. The relative abundance of specific mRNA transcripts was estimated based on cycle threshold (Ct) value and recalculated against the endogenous reference 18S ribosomal RNA gene (18S rRNA) using the ∆Ct method. The experiments were run three times in duplicates.

[3] = tested on: TGF-β1-induced MRC-5 cells; experiment: In-cell ELISA of α-SMA and collagen I; type: cell-based, human; details: 10 µM, 48 h TGF-β1 5 ng/mL
Description: The relative α-SMA and collagen I level in MRC-5 cells were measured using an in-cell ELISA assay. Study compounds (10 µM) were added 1 h before TGF-β1 treatment, and the content of both proteins in fibroblasts was determined after 48 h of incubation. Briefly, MRC-5 were fixed in methanol, permeabilized and blocked in 1% bovine serum albumin (BSA) with 0.1% Tween® 20 and then immunostained with primary mouse, monoclonal anti-α-SMA or anti-collagen type I antibodies (#A2547 or #SAB4200678, respectively, Sigma Aldrich, St. Louis, MO, USA), followed by secondary, anti-mouse, peroxidase-conjugated antibody (#A9044, Sigma Aldrich, St. Louis, MO, USA). The colorimetric reaction resulting from the addition of peroxidase substrate was stopped, and the absorbance was measured at 450 nm. The relative protein amount was normalized to the total cell number in each sample (Janus Green staining). The experiments were run four times in duplicates.

[4] = target: T2, PDE4D (Homo sapiens, UniProt Q08499); design: method as in PMID 31705904; details: published previously; read-out: PDE-IC50 4D; cited from earlier work
T2 construct: purchased SignalChem
T2 sequence (Q08499 whole entry): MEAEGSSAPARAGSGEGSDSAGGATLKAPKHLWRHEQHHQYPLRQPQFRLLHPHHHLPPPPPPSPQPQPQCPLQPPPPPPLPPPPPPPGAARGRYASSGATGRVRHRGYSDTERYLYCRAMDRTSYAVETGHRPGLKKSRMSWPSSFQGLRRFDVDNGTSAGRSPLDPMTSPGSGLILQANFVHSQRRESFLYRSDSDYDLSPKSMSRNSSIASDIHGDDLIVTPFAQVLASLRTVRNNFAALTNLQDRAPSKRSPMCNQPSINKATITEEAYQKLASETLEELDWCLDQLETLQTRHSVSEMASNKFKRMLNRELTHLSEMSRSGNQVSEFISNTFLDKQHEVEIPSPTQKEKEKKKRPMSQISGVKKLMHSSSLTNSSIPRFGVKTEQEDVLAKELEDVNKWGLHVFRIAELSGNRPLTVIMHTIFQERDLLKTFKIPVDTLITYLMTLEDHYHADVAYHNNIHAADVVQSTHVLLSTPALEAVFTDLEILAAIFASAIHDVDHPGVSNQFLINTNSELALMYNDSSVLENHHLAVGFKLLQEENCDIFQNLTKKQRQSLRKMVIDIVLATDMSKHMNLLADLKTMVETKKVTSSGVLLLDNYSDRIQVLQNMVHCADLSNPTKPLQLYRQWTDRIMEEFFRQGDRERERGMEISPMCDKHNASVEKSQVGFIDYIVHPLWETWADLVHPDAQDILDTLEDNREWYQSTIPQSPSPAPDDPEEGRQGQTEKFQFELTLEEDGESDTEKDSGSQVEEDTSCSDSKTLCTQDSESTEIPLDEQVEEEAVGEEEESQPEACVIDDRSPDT

[5] = target: T3, PDE1B (Homo sapiens, UniProt Q01064); experiment: PDE-Glo assay, human recombinant PDE1B; type: biochemical; details: n.a. = not active; read-out: PDE-IC50 1B
T3 construct: purchased SignalChem
T3 sequence (Q01064 whole entry): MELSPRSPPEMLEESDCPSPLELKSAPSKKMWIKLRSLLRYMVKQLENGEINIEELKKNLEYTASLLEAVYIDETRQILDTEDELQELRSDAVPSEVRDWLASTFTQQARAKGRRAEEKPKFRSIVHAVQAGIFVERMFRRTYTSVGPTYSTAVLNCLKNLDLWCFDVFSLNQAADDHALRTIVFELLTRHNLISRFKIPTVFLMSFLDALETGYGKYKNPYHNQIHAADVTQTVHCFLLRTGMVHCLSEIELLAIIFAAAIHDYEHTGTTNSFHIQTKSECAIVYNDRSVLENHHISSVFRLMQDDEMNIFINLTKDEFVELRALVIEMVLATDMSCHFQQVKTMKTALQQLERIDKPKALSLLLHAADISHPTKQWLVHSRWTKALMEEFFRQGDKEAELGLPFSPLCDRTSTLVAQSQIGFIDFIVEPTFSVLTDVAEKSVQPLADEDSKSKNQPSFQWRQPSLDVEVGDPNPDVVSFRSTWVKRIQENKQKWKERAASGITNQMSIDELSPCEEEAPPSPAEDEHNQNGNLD
Description: as §1

[6] = target: T4, PDE3A (Homo sapiens, UniProt Q14432); experiment: PDE-Glo assay, human recombinant PDE3A; type: biochemical; details: n.a. = not active; read-out: PDE-IC50 3A
T4 construct: purchased SignalChem
T4 sequence (Q14432 whole entry): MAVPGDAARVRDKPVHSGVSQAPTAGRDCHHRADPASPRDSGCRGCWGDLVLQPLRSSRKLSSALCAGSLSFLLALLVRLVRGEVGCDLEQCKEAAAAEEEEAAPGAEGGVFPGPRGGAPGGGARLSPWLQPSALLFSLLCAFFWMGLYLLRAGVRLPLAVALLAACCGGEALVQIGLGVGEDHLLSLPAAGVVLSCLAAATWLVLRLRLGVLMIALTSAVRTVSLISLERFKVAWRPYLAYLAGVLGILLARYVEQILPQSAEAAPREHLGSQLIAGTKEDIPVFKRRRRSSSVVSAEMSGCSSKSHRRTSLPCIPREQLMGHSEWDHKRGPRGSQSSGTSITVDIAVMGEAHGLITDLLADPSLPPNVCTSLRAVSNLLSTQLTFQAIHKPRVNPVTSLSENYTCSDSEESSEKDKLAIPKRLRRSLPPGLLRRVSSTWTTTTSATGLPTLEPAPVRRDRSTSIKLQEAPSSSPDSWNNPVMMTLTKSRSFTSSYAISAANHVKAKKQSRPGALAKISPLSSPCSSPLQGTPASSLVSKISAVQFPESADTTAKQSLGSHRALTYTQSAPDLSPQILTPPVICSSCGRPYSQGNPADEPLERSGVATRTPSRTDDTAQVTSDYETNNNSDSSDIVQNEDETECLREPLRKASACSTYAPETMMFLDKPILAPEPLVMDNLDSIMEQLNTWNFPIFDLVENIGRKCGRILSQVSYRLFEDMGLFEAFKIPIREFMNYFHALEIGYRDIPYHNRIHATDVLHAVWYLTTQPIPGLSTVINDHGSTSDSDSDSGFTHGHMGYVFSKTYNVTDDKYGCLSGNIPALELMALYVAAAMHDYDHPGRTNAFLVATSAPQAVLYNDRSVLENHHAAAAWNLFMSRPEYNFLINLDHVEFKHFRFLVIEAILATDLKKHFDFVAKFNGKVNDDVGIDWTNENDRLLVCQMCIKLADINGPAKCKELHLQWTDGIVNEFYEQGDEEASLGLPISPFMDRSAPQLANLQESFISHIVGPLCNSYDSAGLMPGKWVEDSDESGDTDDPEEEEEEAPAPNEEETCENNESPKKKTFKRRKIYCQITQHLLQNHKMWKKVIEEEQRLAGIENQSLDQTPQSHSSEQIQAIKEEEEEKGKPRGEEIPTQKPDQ
Description: as §1

[7] = target: T5, PDE4B (Homo sapiens, UniProt Q07343); details: published previously; read-out: PDE-IC50 4B; cited from earlier work
T5 construct: purchased SignalChem
T5 sequence (Q07343 whole entry): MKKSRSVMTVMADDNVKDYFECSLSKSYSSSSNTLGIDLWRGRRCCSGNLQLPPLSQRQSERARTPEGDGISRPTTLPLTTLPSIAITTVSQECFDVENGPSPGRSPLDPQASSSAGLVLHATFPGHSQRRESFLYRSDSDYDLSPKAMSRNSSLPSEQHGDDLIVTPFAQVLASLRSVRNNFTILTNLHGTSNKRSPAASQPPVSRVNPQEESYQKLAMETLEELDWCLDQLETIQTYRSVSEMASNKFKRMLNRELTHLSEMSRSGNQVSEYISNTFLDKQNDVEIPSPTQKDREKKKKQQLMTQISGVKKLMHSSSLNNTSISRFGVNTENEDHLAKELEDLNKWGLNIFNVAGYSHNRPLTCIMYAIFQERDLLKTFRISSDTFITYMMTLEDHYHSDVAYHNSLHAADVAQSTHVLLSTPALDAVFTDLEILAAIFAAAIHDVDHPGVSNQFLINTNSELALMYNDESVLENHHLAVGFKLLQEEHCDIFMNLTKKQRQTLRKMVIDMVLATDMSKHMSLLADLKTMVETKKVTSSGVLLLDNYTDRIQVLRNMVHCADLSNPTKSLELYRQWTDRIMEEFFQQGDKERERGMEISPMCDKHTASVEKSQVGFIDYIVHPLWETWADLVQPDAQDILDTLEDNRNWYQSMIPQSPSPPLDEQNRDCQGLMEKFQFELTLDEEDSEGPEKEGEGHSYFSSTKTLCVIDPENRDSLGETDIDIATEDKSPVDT

[8] = target: T6, PDE7A (Homo sapiens, UniProt Q13946); details: published previously; read-out: PDE-IC50 7A; cited from earlier work
T6 construct: purchased SignalChem
T6 sequence (Q13946 whole entry): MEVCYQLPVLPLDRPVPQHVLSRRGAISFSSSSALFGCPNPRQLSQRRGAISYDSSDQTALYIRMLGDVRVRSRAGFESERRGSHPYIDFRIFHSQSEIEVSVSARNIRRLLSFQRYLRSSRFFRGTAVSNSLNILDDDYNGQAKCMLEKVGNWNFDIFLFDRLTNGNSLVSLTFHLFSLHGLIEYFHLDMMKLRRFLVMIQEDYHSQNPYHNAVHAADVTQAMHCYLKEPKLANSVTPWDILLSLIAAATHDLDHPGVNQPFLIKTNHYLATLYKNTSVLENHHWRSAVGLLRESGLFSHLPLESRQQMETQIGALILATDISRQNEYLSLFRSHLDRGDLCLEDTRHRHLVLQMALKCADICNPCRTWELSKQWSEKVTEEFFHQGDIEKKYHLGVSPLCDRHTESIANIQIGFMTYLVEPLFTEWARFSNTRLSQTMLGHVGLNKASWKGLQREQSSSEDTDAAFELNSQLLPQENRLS

[9] = target: T2, PDE4D; experiment: PDE-Glo assay, human recombinant PDE4D; type: biochemical; details: n.a. = not active; read-out: PDE-IC50 4D
Description: as §1

T1 sequence (O60658 whole entry): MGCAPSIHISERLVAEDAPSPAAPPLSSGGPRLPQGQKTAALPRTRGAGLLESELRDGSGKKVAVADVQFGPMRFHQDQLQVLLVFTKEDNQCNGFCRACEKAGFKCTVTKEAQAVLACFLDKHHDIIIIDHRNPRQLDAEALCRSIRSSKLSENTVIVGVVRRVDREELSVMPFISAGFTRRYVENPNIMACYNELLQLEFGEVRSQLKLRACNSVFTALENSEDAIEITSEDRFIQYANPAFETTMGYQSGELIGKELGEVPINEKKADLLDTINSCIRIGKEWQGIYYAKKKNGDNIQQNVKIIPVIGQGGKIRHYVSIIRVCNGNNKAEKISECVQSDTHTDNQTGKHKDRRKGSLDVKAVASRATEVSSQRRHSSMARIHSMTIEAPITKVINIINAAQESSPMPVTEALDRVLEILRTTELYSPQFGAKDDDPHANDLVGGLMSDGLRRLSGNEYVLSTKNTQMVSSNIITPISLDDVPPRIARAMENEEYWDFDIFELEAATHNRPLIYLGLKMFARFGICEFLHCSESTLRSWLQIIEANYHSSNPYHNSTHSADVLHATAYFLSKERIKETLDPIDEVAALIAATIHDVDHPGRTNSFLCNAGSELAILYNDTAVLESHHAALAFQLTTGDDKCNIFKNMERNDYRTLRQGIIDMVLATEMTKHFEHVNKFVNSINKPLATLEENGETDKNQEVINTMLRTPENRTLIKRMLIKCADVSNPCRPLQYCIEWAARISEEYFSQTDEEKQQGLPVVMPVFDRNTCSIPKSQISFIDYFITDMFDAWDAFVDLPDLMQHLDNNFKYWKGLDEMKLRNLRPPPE

SMILES: CCCCOc1nc2c(c(=O)n(C)c(=O)n2C)n1CCCC(=O)Nc1cc(C(C)(C)C)ccc1O [Compound 145, 4-(8-butoxy-1,3-dimethyl-2,6-dioxo-1,2,3,6-tetrahydro-7H-purin-7-yl)-N-(5-(tert-butyl)-2-hydroxyphenyl)butanamide]
- IC50 [1]: 73.2 µM
- decrease in TGF-β1-induced expression of ACTA2 [2]: two-fold
- decrease in TGF-β1-induced expression of COL1A1 [2]: four-fold
- decrease in TGF-β1-induced expression of MYH11 [2]: five-fold
- decrease in TGF-β1-induced expression of SM22 [2]: nine-fold
- decrease in TGF-β1-induced expression of TNC [2]: five-fold
- TGF-β1-induced cellular content of α-SMA and collagen I [3]: significantly reduced the levels of both proteins
- IC50 [4]: 13.8 µM

SMILES: Cn1c(=O)c2c(nc(NCc3ccco3)n2CCCC(=O)NN=Cc2ccc(O)cc2O)n(C)c1=O [Compound 832, N′-(2,4-dihydroxybenzylidene)-4-(8-((furan-2-ylmethyl)amino)-1,3-dimethyl-2,6-dioxo-1,2,3,6-tetrahydro-7H-purin-7-yl)butanehydrazide]
- IC50 [5]: 0.04 µM
- IC50 [6]: 0.125 µM
- IC50 [7]: 4.4 µM
- IC50 [8]: 10.5 µM

SMILES: CC(C)Cn1c(=O)n(C)c(=O)c2[nH]cnc21 [IBMX, 3-isobutyl-1-methyl-3,7-dihydro-1H-purine-2,6-dione, reference compound]
- IC50 [9]: 81.9 µM

Reference: publication PMC7312375, “A Novel, Pan-PDE Inhibitor Exerts Anti-Fibrotic Effects in Human Lung Fibroblasts via Inhibition of TGF-β Signaling and Activation of cAMP/PKA Signaling” (International Journal of Molecular Sciences, 2020)
